We go through 13 compounds from ChEMBL document CHEMBL1201862, “PubChem BioAssay data set” (2004).

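Tested at 5 concentrations; 48 h exposure; 96-well plates; endpoints linearly interpolated, else capped at highest concentration. GI50 marks 50% less growth.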 Calls of active or inactive are those of the source. Rule as the data show it: active = GI50 up to about 1.1 µM and inactive = higher. Bounds are passed on as bounds.

What all share (assay): growth of human tumour cells (NCI), 48 h
Assay [1] concerns RXF 393.
Assay [2] concerns SF-295.
Assay [3] has as its system HCT-15.
Assay [4] deals with HOP-62.
The test system of assay [5] is HCC 2998.
Assay [6] concerns IGROV-1.
Assay [7] has as its system SNB-19.
Assay [8] deals with SK-MEL-2.
Assay [9] concerns MCF7.
The subject of assay [10] is K562.
Assay [11] has as its system OVCAR-3.
For assay [12], the system named is ACHN.
Assay [13] concerns PC-3.
Assay [14] deals with SF-268.
For assay [15], the system named is TK-10.
In assay [16] the test system is U-251.

Take `C/C(=N\NC(=O)c1ccncc1)c1sc(-n2nc(-c3ccccc3)cc2-c2ccccc2)nc1C`: the GI50 in assay [1] was > 31.6 µM (inactive); in assay [2], > 31.6 µM (inactive); in [3] it was above 31.6 µM; in [4], > 31.6 µM (inactive); in assay [5] it was > 31.6 µM (inactive); in assay [6] it was > 33.7 µM (inactive). Further, the GI50 in [7] was > 31.6 µM (inactive); in [8] it was > 31.6 µM (inactive); in assay [9], > 31.6 µM (inactive); in assay [10], 59.6 µM (inactive); in assay [11], 25.1 µM (inactive); in assay [12], > 31.6 µM (inactive). Further, the GI50 was > 31.6 µM (inactive) in [13], > 100 µM (inactive) in assay [14], > 31.6 µM (inactive) in [15] and > 31.6 µM (inactive) in assay [16].
As to `O=c1sc(Nc2ccc3ccccc3c2Cl)nc2ccccc12`, the GI50 in assay [1] was 72.1 µM (inactive); in assay [2] it was > 100 µM (inactive); in assay [3], above 100 µM; in assay [4], > 100 µM (inactive); in assay [5] it was > 100 µM (inactive); in [6] it was > 100 µM (inactive). Moreover, the GI50 in assay [7], in assay [8], in [9], in assay [10], in [11] and in assay [12] was > 100 µM (inactive) in each case. Moreover, the GI50 in [13], in [14], in assay [15] and in assay [16] was > 100 µM (inactive) each time.
For the compound `Cc1ccc(/C=C2\Cc3c(C)cc(C)cc3C2=O)c(C(=O)O)c1`, the GI50 in assay [1] is 39.9 µM (inactive); in [2] it was 41.9 µM (inactive); in assay [3], 36.3 µM; in [4], 83.4 µM (inactive); in assay [5], 38.4 µM (inactive); in assay [6], 79.8 µM (inactive). Further, the GI50 in [7] is 44.5 µM (inactive); in assay [8] it was 24.4 µM (inactive); in [9] it was 56.2 µM (inactive); in [10] it was 54.7 µM (inactive); in assay [11] it was 31 µM (inactive); in assay [12], 59.6 µM (inactive). Moreover, the GI50 in assay [13] was 41.9 µM (inactive); in [14] it was 40.5 µM (inactive); in assay [15], 83.4 µM (inactive); in assay [16] it was 29.9 µM (inactive).
Consider `COc1cccc(C(=O)C#Cc2cnc(OC)nc2OC)c1`, for which the GI50 in assay [1] was 0.331 µM (active); in [2] it was 14.2 µM (inactive); in assay [3], 0.2 µM; in assay [4], 13.5 µM (inactive); in [5], 6.43 µM (inactive); in assay [6], 0.653 µM (active). In addition, the GI50 in [7] was 15.8 µM (inactive); in [8], 1.8 µM (inactive); in assay [9], 0.126 µM (active); in [10], 0.356 µM (active); in assay [11], 1.81 µM (inactive); in [12], 1.73 µM (inactive). Further, the GI50 in [13] is 1.37 µM (inactive); in assay [14], 2.49 µM (inactive); in [15] it was 1.43 µM (inactive); in assay [16], 2.84 µM (inactive).
Consider `CCCCNC(=O)OCCN=C1c2ccccc2C(Br)C(Br)c2ccccc21` (stereo not drawn), for which the GI50 in assay [1] was 14.3 µM (inactive); in assay [2] it was 87.7 µM (inactive); in assay [3], 16 µM; in assay [4], 25.9 µM (inactive); in assay [5], > 100 µM (inactive); in assay [6], 49.8 µM (inactive). Moreover, the GI50 was 24.9 µM (inactive) in assay [7]; 42.9 µM (inactive) in assay [8]; 58.2 µM (inactive) in assay [9]; 29.9 µM (inactive) in assay [10]; 19.9 µM (inactive) in assay [11]; 24.2 µM (inactive) in [12]. Besides, the GI50 is 36.9 µM (inactive) in [13], 32.3 µM (inactive) in assay [14], 25.4 µM (inactive) in assay [15] and 23.2 µM (inactive) in assay [16].
In the case of `OCC1COc2cc(Cl)c(Cl)cc2O1` (stereo not drawn), the GI50 was > 10 µM (inactive) in assay [1]; > 10 µM (inactive) in assay [2]; above 10 µM in [3]; > 10 µM (inactive) in assay [4]; > 10 µM (inactive) in [5]; > 10 µM (inactive) in assay [6]. The GI50 in assay [7], in assay [8], in [9], in assay [10], in [11] and in assay [12] was > 10 µM (inactive) throughout. Besides, the GI50 in assay [13], in [14], in [15] and in assay [16] was > 10 µM (inactive) each time.
For the compound `COC(=O)[C@]1(C)CCCn2c(=O)n(-c3ccccc3)c(=O)n21`, the GI50 in [1] is > 100 µM (inactive); in [2] it was > 100 µM (inactive); in assay [3], above 100 µM; in assay [4], > 100 µM (inactive); in assay [5], > 100 µM (inactive); in assay [6] it was > 100 µM (inactive). Further, the GI50 in [7], in [8], in [9], in [10], in [11] and in assay [12] was > 100 µM (inactive) throughout. Moreover, the GI50 in assay [13], in assay [14], in assay [15] and in assay [16] was > 100 µM (inactive) in each case.
`CCCCCCCCCCCCCCCCP(=O)([O-])OCC[N+](C)(C)C`: the GI50 in assay [1] is 3.93 µM (inactive); in assay [2], 12.9 µM (inactive); in [3], 6.56 µM; in assay [4], 15.2 µM (inactive); in assay [5], 6.19 µM (inactive); in assay [6] it was 1.56 µM (inactive). Besides, the GI50 was 30 µM (inactive) in [7]; 15.1 µM (inactive) in assay [8]; 17.5 µM (inactive) in assay [9]; 19 µM (inactive) in assay [10]; 17.1 µM (inactive) in assay [11]; 16.5 µM (inactive) in assay [12]. Besides, the GI50 in assay [13] was 1.71 µM (inactive); in [14], 17.6 µM (inactive); in assay [15], 1.5 µM (inactive); in [16], 16.7 µM (inactive).
Turning to `COC(=O)c1cc2c3c(cc(N(C)C)c2[nH]1)N(C(=O)c1cc2cc(OC)c(OC)c(OC)c2[nH]1)CC3CCl` (stereo not drawn), the GI50 in assay [1] was < 0.0025 µM (active); in assay [2], 0.00379 µM (active); in assay [3], 0.00468 µM; in assay [4], 0.00262 µM (active); in [5], 0.00948 µM (active); in [6], < 0.0025 µM (active). In addition, the GI50 in assay [7] was 0.00775 µM (active); in assay [8], 0.00762 µM (active); in [9] it was < 0.0025 µM (active); in [10] it was 0.00317 µM (active); in [11] it was 0.00396 µM (active); in assay [12], < 0.0025 µM (active). Also, the GI50 in assay [13] is 0.00366 µM (active); in assay [14] it was 0.00374 µM (active); in assay [15], 0.00968 µM (active); in [16], < 0.0025 µM (active).
For `O=C1O/C(=C\c2ccc(O)cc2)C(c2ccc(O)c(Cl)c2)=C1Br`, the GI50 in assay [1] was 18.6 µM (inactive); in [2], 14.5 µM (inactive); in assay [3] it was 12.9 µM; in [4], 14.2 µM (inactive); in assay [5] it was 11.3 µM (inactive); in assay [6] it was 12 µM (inactive). The GI50 in assay [7] was 15.7 µM (inactive); in [8] it was 14 µM (inactive); in [9], 16.7 µM (inactive); in [10], 2.25 µM (inactive); in assay [11] it was 7 µM (inactive); in [12], 13.2 µM (inactive). The GI50 in assay [13] is 6.47 µM (inactive); in assay [14] it was 13.7 µM (inactive); in assay [15], 18.9 µM (inactive); in assay [16], 18 µM (inactive).
Consider `CC(C)(C)OC(=O)NC(CSSCC(NC(=O)OC(C)(C)C)C(=O)O)C(=O)O` (stereo not drawn), for which the GI50 is > 100 µM (inactive) in assay [1]; > 100 µM (inactive) in assay [2]; above 100 µM in assay [3]; > 100 µM (inactive) in assay [4]; > 100 µM (inactive) in assay [5]; > 100 µM (inactive) in [6]. Moreover, the GI50 in [7], in [8], in [9], in [10], in assay [11] and in [12] was > 100 µM (inactive) in each case. In addition, the GI50 in assay [13], in assay [14], in [15] and in assay [16] was > 100 µM (inactive) in each case.
Turning to `CCOC(=O)C(NC(=O)c1cccc(Cl)c1)(Nc1ccc(S(=O)(=O)Nc2cc(C)on2)cc1)C(F)(F)F` (stereo not drawn), the GI50 in assay [1] was 42.5 µM (inactive); in assay [2] it was 14.4 µM (inactive); in assay [3], above 100 µM; in assay [4], > 100 µM (inactive); in assay [5], > 100 µM (inactive); in [6] it was > 100 µM (inactive). Also, the GI50 in [7], in assay [8], in assay [9], in [10], in assay [11] and in assay [12] was > 100 µM (inactive) throughout. The GI50 in assay [13], in assay [14], in assay [15] and in [16] was > 100 µM (inactive) each time.
Consider `COc1cc(/C=C/C(=O)CC(=O)/C=C/c2ccc(O)c(OC)c2)ccc1O` [CURCUMIN], for which the GI50 in assay [1] was 3 µM (inactive); in [2], 8.04 µM (inactive); in [3], 4.12 µM; in assay [4], 3.63 µM (inactive); in assay [5], 3.02 µM (inactive); in assay [6] it was 7.89 µM (inactive). The GI50 was 9.42 µM (inactive) in assay [7]; 16.5 µM (inactive) in [8]; 3.34 µM (inactive) in assay [9]; 3.13 µM (inactive) in [10]; 6.64 µM (inactive) in assay [11]; 12.4 µM (inactive) in assay [12]. In addition, the GI50 in assay [13] is 8.79 µM (inactive); in [14], 7.06 µM (inactive); in [15], 14.2 µM (inactive); in [16], 4.72 µM (inactive).
